Source: article PMC11898701, “Evaluating Therapeutic Efficacy of the Vascular Disrupting Agent OXi8007 Against Kidney Cancer in Mice” (Cancers, 2025)
Like-named read-outs stand apart in the source and are kept apart here. Marks after values point to notes of the source that are not given here.

Legend:
Renca cells [1] = assay: Renca sulforhodamine B (SRB) assay, cell growth inhibition; format: cell-based; settings: Mus musculus, Renca, 48 h
Protocol: (§1) In two independent trials of Renca and Renca-luc cells were plated in triplicate at 8000 cells/well into 96-well plates and incubated for 24 h at 37 °C in a humidified incubator with 5% CO2 followed by a 48 h treatment period at ten-fold dilutions of the drug.

Renca-luc cells = assay: Renca-luc sulforhodamine B (SRB) assay, cell growth inhibition; format: cell-based; settings: Mus musculus, 48 h
Protocol: as §1

Renca cells [2] = assay: Microtubule disruption and cell morphology in Renca cells; format: cell-based, mouse; settings: 2.5 and 5 µM
Protocol: Renca cells were plated in cell culture-treated 96-well plates (Grenier Bio-One North America Inc., Monroe, NC, USA) at 2000 cells/well and allowed to adhere for 24 h before treatment. Hoechst 33342 (1 μg/mL) in complete RPMI 1640 medium was used to stain the cell nuclei for 15 min at 37 °C. […] The medium was removed to reduce background fluorescence, followed by two wash cycles with fresh medium. Fresh medium containing 25 μM of verapamil hydrochloride was added to the stained cells prior to imaging. Images of the microtubule cytoskeleton and nuclei were collected over 3 h using a Biotek Lionheart microscope ELx800 in fluorescence mode with a 20× objective.

Renca cells [3] = assay: Wound (scratch) assay; format: cell-based, mouse; settings: ≥ 2.5 µM, over 48 h
Protocol: Renca cells were plated at a seeding density of approximately 3 × 10^5 cells per well in a 6-well plate and allowed to reach confluency before treatment. A scratch was made with a sterile 10 µL pipette tip in each well before removing the medium and any detached cells. […] Hoechst 33342 was added to each well at a final concentration of 1 µg/mL and incubated for 15 min at 37 °C to stain the cell nuclei. Gen5 version 3.14 software was used for cellular and statistical analysis of the wound closure data.

[4] = Pharmacokinetic study in Renca-luc tumor-bearing BALB/c mice; format: in vivo, mouse; settings: for Tmax / half-life / Cmax: ip; for Cmax: read-out: Cmax
Protocol: Plasma and tissues were harvested at various time points (20 min to 16 h) from Renca-luc tumor-bearing BALB/c male mice following the administration of OXi8007 IP. Mice treated with 250 mg/kg were sacrificed at 20 min (n = 3), 1 h (n = 4), 2 h (n = 4), 4 h (n = 4), 8 h (n = 4), and 16 h (n = 4). Mice were anesthetized, exsanguinated, the tissues were blotted, and then they were weighed and frozen in liquid nitrogen. Homogenized plasma and tissue samples were extracted with acetonitrile with a bead mill; internal standard (CA4 or tri-labeled ^13C-OXi8006) was added to each sample to reach a final concentration of 10 ppb. Samples were centrifuged twice to remove precipitated proteins (16,260× g for 10 min at 4 °C). Clear supernatant was transferred into MS vials, and formic acid was added to a final concentration of 0.1% for LC-MS analysis. […] Mobile phase A consisted of 0.1% v/v formic acid in water, and mobile phase B was acetonitrile, which was mixed by the binary pump with an elution gradient at a flow rate of 0.6 mL/min. Data were analyzed using Xcalibur 4.6 software based on exact masses, and Phoenix WinNonlin 8.5.0 software was used to determine the pharmacokinetic parameters based on a non-compartmental model.

[5] = Blood pressure assessment (CODA system); format: in vivo, mouse
Protocol: Blood pressure was measured using a CODA system (Kent Scientific, Torrington, CT, USA) on 5 adult male BALB/c mice. Mice were anesthetized with 2% isoflurane in oxygen at 1 dm^3/min and placed on the CODA IR heating pad with a feedback rectal temperature probe and nosecone to maintain anesthesia. An occlusion cuff and VPR cuff were placed on the tail. The baseline measurement was recorded over 30 min, then OXi8007 (250 mg/kg or 325 mg/kg) was administered IP and the blood pressure measurement resumed for 45 min. As positive and negative controls, hydralazine (1 mg/kg) or saline, respectively, were injected IP.

[6] = test system: orthotopic Renca-luc tumors; assay: Acute response by oxygen-enhanced MSOT; format: in vivo, mouse
Protocol: For the multispectral optoacoustic tomography (MSOT), an iThera InVision 256-TF device with seven wavelengths (700, 730, 760, 780, 800, 820, and 875 nm) was used. Mice were shaved and depilated around the tumor region. The anesthetized mouse (1–2% isoflurane) was placed in the imaging chamber (34 °C) for 10 min to reach thermal equilibrium before imaging a single slice showing the largest cross-section of the tumor. An oxygen gas breathing challenge was performed to assess the dynamic changes in blood oxygenation. Images were generated using ViewMSOT version 4.2 with a back projection-based reconstruction algorithm followed by built-in fluence correction. Oxy- and deoxyhemoglobin were resolved using a linear regression approach.
Oxygen saturation (sO2) maps were analyzed using MATLAB 2022b (MathWorks Inc., Natick, MA, USA), and the images were visualized with Fiji. The percentage of hemoglobin saturation (sO2) was calculated as follows:[…]
Blank pixels represent areas lacking a detectable hemoglobin signal. The average sO2^MSOT was calculated pixelwise in each ROI for the air and oxygen breathing periods as sO2^MSOT (Air) and sO2^MSOT (O2), and the response to the oxygen gas challenge was as follows:∆sO2 = sO2 (O2) − sO2 (Air)(2) […]

Ewing sarcoma = test system: Ewing sarcoma; design: method as in PMID 19136249; settings: 200 mg/kg twice weekly; cited from earlier work
[7] = test system: subcutaneous MDA-MB-231 tumors; design: method as in earlier work; settings: cited from earlier work
[8] = male, BALB/c, mouse, in vivo, 250 mg/kg, brain, after OXi8007 250 mg/kg IP
[9] = male, BALB/c, mouse, in vivo, 250 mg/kg, heart, after OXi8007 250 mg/kg IP
[10] = male, BALB/c, mouse, in vivo, 250 mg/kg, left kidney, after OXi8007 250 mg/kg IP
[11] = male, BALB/c, mouse, in vivo, 250 mg/kg, liver, after OXi8007 250 mg/kg IP
[12] = male, BALB/c, mouse, in vivo, 250 mg/kg, lungs, after OXi8007 250 mg/kg IP
[13] = male, BALB/c, mouse, in vivo, 250 mg/kg, plasma, after OXi8007 250 mg/kg IP
[14] = male, BALB/c, mouse, in vivo, 250 mg/kg, spleen, after OXi8007 250 mg/kg IP
[15] = male, BALB/c, mouse, in vivo, 250 mg/kg, tumor and right kidney, after OXi8007 250 mg/kg IP

For `COc1ccc2c(C(=O)c3cc(OC)c(OC)c(OC)c3)c(-c3ccc(OC)c(OP(=O)(O)O)c3)[nH]c2c1` [OXi8007], the IC50 (Renca cells [1]) was 1450 ± 1 nM, the IC50 (Renca-luc cells) was 1560 ± 48 nM and the “Effect on microtubule structure” value (Renca cells [2]) was “rapid progressive loss of microtubule structure”. The Wound closure (Renca cells [3]) was “significantly depressed”, the “Concentration in the tumor, molar equivalent” value ([4]; Renca-luc tumor, from 15 ng/mg) was 32 µM and the “Concentration in the tumor” value ([4]; Renca-luc tumor, maximum) was 15 ng/mg. The AUC ([4]; brain, after OXi8007 250 mg/kg IP) was 0.11 ng·h/mg, the AUC ([4]; heart, after OXi8007 250 mg/kg IP) was 1.32 ng·h/mg and the AUC ([4]; left kidney, after OXi8007 250 mg/kg IP) was 2.05 ng·h/mg. The AUC ([4]; liver, after OXi8007 250 mg/kg IP) was 12.67 ng·h/mg, the AUC ([4]; lungs, after OXi8007 250 mg/kg IP) was 2.3 ng·h/mg and the concentration at 4 h ([4]; male, BALB/c, mouse, in vivo, 250 mg/kg, plasma, within 4 h after OXi8007 IP) was 10 µg/mL. The Tmax ([4]; male, BALB/c, mouse, in vivo, 250 mg/kg, Renca-luc tumors, IP administration, read-out: Time to maximum concentration in tumors) was ≤ 60 min, the half-life [4, 8] was 30.6 min and the Cmax [4, 8] was 70 ng/g. It also gave a Tmax ([4]; male, BALB/c, mouse, in vivo, 250 mg/kg, brain, after OXi8007 250 mg/kg IP, read-out: Tmax (converted)) of 60 min, a half-life [4, 9] of 36.6 min and a Cmax [4, 9] of 1620 ng/g. For the same compound, the Tmax ([4]; male, BALB/c, mouse, in vivo, 250 mg/kg, heart, after OXi8007 250 mg/kg IP, read-out: Tmax (converted)) was 20 min, the half-life [4, 10] was 70.8 min and the Cmax [4, 10] was 1400 ng/g. For the same compound, the Tmax ([4]; male, BALB/c, mouse, in vivo, 250 mg/kg, left kidney, after OXi8007 250 mg/kg IP, read-out: Tmax (converted)) was 20 min, the half-life [4, 11] was 66 min and the Cmax [4, 11] was 13400 ng/g. The Tmax ([4]; male, BALB/c, mouse, in vivo, 250 mg/kg, liver, after OXi8007 250 mg/kg IP, read-out: Tmax (converted)) was 20 min, the half-life [4, 12] was 42 min and the Cmax [4, 12] was 1610 ng/g. For the same compound, the Tmax ([4]; male, BALB/c, mouse, in vivo, 250 mg/kg, lungs, after OXi8007 250 mg/kg IP, read-out: Tmax (converted)) was 20 min, the half-life [4, 13] was 49 min and the half-life ([4]; male, BALB/c, mouse, in vivo, 250 mg/kg, plasma, after OXi8007 250 mg/kg IP, Renca-luc tumor-bearing BALB/c mice) was 49.2 min. It also gave a Cmax [4, 13] of 453 µg/mL, a Tmax ([4]; male, BALB/c, mouse, in vivo, 250 mg/kg, plasma, after OXi8007 250 mg/kg IP, read-out: Tmax (converted)) of 20 min and a half-life [4, 14] of 39 min. The Cmax [4, 14] was 990 ng/g, the Tmax ([4]; male, BALB/c, mouse, in vivo, 250 mg/kg, spleen, after OXi8007 250 mg/kg IP, read-out: Tmax (converted)) was 60 min and the half-life [4, 15] was 120 min. The Cmax [4, 15] was 15000 ng/g, the Tmax ([4]; male, BALB/c, mouse, in vivo, 250 mg/kg, tumor and right kidney, after OXi8007 250 mg/kg IP, read-out: Tmax (converted)) was 60 min and the Plasma concentration ([4]; plasma, maximum, after OXi8007 IP) was “about 450 µg/mL”. For the same compound, the AUC ([4]; plasma, after OXi8007 250 mg/kg IP, zero to last quantifiable concentration) was 511 ^# h × ng/µL, the AUC ([4]; spleen, after OXi8007 250 mg/kg IP) was 1.41 ng·h/mg and the AUC ([4]; tumor and right kidney, after OXi8007 250 mg/kg IP) was 36.31 ng·h/mg. The “Duration of temporary elevation in blood pressure” value ([5]; 250 mg/kg IP) was “less than 20 min”, the “Diastolic blood pressure after administration” value ([5]; 250 mg/kg IP, 5 male BALB/c mice, baseline 84 ± 2) was 82 mmHg and the “Mean blood pressure after administration” value ([5]; 250 mg/kg IP, 5 male BALB/c mice, baseline 94 ± 2) was 94 mmHg. The “Systolic blood pressure after administration” value ([5]; 250 mg/kg IP, 5 male BALB/c mice, baseline 115 ± 3) was 117 mmHg, the “Effect on mouse blood pressure” value ([5]; 250 mg/kg IP, systolic, diastolic or mean) was “minimal effect” and the “Effect on mouse blood pressure” value ([5]; 325 mg/kg IP) was “larger transient change”. The “Period of vascular hypoxiation to plateau (MSOT)” value ([6]; 350 mg/kg IP in situ using a catheter, while breathing O2) was “about 30 min”, the “Time to hypoxiation (photoacoustic imaging)” value ([6]; after intraperitoneal administration) was ≤ 30 min and the Tumor growth delay (Ewing sarcoma) was “no tumor growth delay”. For the same compound, the Tumor growth delay [7] was “significant tumor growth delay”.
